Data as given in US20230277630A1, “METHODS AND COMPOSITIONS FOR TREATING AMYOTROPHIC LATERAL SCLEROSIS” (Amylyx Pharmaceuticals, Inc., priority 2022, published 2023).
Read-outs that look alike come from different tables or passages of the source.

Assays:
hrCYP2B6 = biological target: T1, hrCYP2B6 (Homo sapiens, UniProt P20813); conditions: recombinant enzyme, 5 μM, pH 7.4
T1 sequence (P20813 1-491): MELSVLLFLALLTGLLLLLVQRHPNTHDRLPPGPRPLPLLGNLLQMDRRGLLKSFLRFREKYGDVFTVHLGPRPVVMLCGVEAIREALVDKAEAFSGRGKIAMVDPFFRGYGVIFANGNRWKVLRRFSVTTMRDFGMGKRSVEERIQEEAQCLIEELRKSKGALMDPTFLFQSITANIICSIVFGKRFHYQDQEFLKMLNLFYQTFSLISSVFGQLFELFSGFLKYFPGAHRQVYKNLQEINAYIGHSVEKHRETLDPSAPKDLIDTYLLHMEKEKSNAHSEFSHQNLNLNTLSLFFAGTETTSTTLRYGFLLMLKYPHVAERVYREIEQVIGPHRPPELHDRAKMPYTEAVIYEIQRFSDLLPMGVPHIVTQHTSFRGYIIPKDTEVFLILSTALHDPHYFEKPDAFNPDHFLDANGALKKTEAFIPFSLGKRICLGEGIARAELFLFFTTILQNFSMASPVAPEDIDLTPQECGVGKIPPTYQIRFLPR
Procedure: (§1) The reaction was initiated by the addition of NADPH, followed by incubation at 37° C.
(§2) % Remaining of TA=100×At/A0
(§3) Where, At is the peak area ratio of TA to internal standard (IS) at time t, A0 is the average peak area ratio of TA to IS at time zero.

hrCYP2C19 = hrCYP2C19 (Homo sapiens, UniProt P33261); conditions: recombinant enzyme, 5 μM, pH 7.4
Procedure: as §1, §2, §3

[1] = Non-specific binding assessment, efflux transporter format (cell-free Transwell plates); format: in vitro ADME; conditions: pH 7.4, all three replicates
Description: Triplicate wells were used for the assay (Table 31). The samples were withdrawn at pre-selected time points from the receiver and donor compartments and mixed with an equal volume of acetonitrile containing IS.

OAT1 = biological target: T2, OAT1 (Homo sapiens, UniProt Q4U2R8); assay: OAT1 inhibitor (IC50) assessment, PAH uptake in transfected HEK cells; format: in vitro ADME
T2 construct: expressed in transfected cells; host or cells: HEK293
T2 sequence (Q4U2R8 1-563): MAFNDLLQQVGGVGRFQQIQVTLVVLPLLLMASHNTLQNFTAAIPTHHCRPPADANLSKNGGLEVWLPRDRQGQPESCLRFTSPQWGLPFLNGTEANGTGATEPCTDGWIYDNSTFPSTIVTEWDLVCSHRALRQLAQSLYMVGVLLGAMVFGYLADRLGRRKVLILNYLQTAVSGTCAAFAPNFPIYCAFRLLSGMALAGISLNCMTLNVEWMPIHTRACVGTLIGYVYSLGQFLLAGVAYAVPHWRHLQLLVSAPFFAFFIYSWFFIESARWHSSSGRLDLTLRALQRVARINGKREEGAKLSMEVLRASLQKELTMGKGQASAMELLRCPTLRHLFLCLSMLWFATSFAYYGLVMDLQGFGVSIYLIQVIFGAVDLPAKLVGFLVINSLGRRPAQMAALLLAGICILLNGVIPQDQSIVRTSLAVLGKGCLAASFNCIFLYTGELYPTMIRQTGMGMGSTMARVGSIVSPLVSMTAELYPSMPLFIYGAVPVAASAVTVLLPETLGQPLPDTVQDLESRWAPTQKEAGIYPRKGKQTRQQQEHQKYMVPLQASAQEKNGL

P-gp = P-gp (Homo sapiens, UniProt P08183); assay: P-gp IC50 assessment, bidirectional digoxin transport in C2BBe1 cells
Procedure: (§4) After 30 minutes, the pre-incubation solution was aspirated.

BCRP [2] = biological target: T3, BCRP (Homo sapiens, UniProt Q9UNQ0); assay: BCRP IC50 assessment, bidirectional cladribine transport in BCRP-MDCK cells
T3 sequence (Q9UNQ0 1-655): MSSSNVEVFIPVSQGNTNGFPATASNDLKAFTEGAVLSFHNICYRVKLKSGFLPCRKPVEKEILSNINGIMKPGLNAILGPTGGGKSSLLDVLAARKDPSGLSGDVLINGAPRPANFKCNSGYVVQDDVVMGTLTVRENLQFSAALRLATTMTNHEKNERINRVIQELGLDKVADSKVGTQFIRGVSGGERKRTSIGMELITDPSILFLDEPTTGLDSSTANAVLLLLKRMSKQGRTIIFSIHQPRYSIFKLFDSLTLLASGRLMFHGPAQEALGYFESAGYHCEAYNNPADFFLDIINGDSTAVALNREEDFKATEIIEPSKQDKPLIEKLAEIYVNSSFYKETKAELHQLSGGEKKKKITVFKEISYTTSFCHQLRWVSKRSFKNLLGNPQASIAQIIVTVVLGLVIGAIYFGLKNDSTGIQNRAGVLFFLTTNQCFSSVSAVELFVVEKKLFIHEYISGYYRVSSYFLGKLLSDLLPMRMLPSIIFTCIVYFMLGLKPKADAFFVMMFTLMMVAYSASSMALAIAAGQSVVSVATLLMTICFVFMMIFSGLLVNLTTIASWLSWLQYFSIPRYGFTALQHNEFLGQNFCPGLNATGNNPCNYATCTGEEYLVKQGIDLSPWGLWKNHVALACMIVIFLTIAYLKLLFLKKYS
Procedure: as §4

BCRP [3] = biological target: T3, BCRP; assay: BCRP IC50 assessment, bidirectional cladribine transport in C2BBe1 cells
Procedure: as §4

MATE2K = MATE2K (Homo sapiens, UniProt Q86VL8)
[4] = Human Plasma Protein Binding; format: in vitro ADME
in vivo = conditions: male, CD (Sprague-Dawley) IGS, rat; for Cmax: po, 840 mg/kg, Cmax plasma level
[5] = TUDCA and PB present simultaneously, PAH uptake, HEK cells, read-out: estimated IC50 toward OAT1
[6] = previous study (Example 6), converted, read-out: IC50 for in vitro inhibition of human OAT1

Sequence of hrCYP2C19 (P33261 whole entry): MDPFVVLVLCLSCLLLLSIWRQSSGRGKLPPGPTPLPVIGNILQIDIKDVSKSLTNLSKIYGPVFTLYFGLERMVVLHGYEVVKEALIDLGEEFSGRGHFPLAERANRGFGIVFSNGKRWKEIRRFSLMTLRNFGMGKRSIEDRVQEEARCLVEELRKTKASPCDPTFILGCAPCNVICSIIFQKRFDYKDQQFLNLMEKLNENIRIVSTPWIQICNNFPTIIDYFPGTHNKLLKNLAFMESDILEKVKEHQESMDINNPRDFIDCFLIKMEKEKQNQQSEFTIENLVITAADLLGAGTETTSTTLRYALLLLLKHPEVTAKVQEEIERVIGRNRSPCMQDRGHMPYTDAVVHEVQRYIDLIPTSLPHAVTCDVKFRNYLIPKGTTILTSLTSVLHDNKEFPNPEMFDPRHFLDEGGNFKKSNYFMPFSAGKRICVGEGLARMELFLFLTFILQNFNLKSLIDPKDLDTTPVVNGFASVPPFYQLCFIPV
Sequence of MATE2K (Q86VL8 1-566 isoform Q86VL8-3): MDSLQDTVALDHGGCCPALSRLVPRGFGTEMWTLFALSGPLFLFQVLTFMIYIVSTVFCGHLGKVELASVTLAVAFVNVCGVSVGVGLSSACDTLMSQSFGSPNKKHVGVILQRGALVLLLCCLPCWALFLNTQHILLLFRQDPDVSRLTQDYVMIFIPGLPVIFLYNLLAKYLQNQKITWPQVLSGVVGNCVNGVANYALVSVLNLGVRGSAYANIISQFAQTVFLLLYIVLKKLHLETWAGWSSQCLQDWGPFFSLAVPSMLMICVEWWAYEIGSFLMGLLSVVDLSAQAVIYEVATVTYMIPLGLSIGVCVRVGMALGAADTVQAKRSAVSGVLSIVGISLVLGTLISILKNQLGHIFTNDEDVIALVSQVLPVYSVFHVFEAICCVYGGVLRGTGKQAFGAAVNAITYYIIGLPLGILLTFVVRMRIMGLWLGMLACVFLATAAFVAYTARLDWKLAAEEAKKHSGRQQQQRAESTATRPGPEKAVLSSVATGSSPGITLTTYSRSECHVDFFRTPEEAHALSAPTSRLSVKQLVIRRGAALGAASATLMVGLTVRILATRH
Sequence of P-gp (P08183 whole entry): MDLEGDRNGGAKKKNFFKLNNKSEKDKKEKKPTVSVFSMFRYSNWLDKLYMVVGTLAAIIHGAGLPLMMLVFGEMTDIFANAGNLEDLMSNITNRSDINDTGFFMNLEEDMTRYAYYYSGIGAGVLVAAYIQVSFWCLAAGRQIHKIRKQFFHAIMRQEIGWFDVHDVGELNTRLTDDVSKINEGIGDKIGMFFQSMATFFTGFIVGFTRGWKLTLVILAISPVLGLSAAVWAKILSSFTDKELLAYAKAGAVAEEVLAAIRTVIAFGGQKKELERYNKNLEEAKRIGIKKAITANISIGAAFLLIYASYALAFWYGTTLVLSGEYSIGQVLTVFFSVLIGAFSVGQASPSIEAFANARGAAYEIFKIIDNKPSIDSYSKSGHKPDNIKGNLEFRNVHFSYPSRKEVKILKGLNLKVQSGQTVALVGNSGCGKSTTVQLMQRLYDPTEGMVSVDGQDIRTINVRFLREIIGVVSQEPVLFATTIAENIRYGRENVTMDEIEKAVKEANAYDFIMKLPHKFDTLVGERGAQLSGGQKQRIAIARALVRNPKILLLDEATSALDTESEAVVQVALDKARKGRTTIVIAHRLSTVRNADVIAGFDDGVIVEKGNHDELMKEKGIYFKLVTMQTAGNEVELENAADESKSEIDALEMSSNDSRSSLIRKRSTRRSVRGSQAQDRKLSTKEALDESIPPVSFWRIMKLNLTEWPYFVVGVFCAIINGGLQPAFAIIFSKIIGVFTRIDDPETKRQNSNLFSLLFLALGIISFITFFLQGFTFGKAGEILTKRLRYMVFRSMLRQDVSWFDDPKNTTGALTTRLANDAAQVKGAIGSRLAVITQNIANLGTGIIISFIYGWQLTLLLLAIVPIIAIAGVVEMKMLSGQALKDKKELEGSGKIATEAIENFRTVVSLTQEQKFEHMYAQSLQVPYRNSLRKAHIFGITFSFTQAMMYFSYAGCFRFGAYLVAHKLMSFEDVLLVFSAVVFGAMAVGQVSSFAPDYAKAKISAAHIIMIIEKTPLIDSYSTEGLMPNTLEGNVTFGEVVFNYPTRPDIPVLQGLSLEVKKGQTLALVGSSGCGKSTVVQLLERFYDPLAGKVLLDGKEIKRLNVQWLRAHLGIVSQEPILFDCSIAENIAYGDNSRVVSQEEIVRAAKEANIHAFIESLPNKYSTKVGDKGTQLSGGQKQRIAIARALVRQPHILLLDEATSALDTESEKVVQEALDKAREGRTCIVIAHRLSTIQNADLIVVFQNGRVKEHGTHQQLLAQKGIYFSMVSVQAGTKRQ

| SMILES | % remained after 60 minutes of incubation (hrCYP2B6; 1 h) | % Remaining of TA (hrCYP2C19; 0 h) | % Remaining of TA (hrCYP2C19; 5 min) | % Remaining of TA (hrCYP2C19; 10 min) | % Remaining of TA (hrCYP2C19; 20 min) | % Remaining of TA (hrCYP2C19; 0.5 h) | % remained after 60 minutes of incubation (hrCYP2C19; 1 h) | recovery [1] | IC50 (OAT1; [5]) | IC50 (OAT1; [6]) | IC50 (P-gp) | IC50 (BCRP [2]) | IC50 (BCRP [3]) | IC50 (MATE2K) | fraction unbound [4] | Cmax (in vivo) | other results |
| --- | --- | --- | --- | --- | --- | --- | --- | --- | --- | --- | --- | --- | --- | --- | --- | --- | --- |
| O=C(O)CCCc1ccccc1 [PB, sodium phenylbutyrate] | greater than 90% | 100% | 97.4% | 101% | 99.7% | 97.5% | greater than 90% | > 80% | 6760 to 20300 nM | 6720 to 20200 nM | 1.79 to 5.37 mM | 2.39 to 7.16 mM | 1.79 to 5.37 mM | > 73.9 mM | 0.179 | 10200 ng/mL | % Remaining of TA (hrCYP2C19; 1 h): 99.8% |
| C[C@H](CCC(=O)NCCS(=O)(=O)O)[C@H]1CC[C@H]2[C@@H]3[C@@H](O)C[C@@H]4C[C@H](O)CC[C@]4(C)[C@H]3CC[C@]12C [TUDCA, tauroursodeoxycholic acid] | greater than 90% | 100% | 96.1% | 98.7% | 94.8% | 95.1% | greater than 90% | > 80% | 74.1 to 222 nM | 70 to 222 nM | 0.222 to 0.667 mM | 0.296 to 0.889 mM | 0.222 to 0.667 mM | > 0.81 mM | 0.015 | 298 ng/mL | % Remaining of TA (hrCYP2B6; 0 h): 100%; % Remaining of TA (hrCYP2B6; 5 min): 97.6%; % Remaining of TA (hrCYP2B6; 10 min): 97.0%; % Remaining of TA (hrCYP2B6; 20 min): 99.3%; % Remaining of TA (hrCYP2B6; 0.5 h): 99.7%; % Remaining of TA (hrCYP2B6; 1 h): 101%; IC50 (OAT1; previous study (Example 6), read-out: IC50 for in vitro inhibition of human OAT1): 74 to 222 nM; Tmax (in vivo; individual Tmax): 1 to 2 h |
